Results on 28 molecules are retold here after patent publication US8119630B2 (Arrow Therapeutics Limited, priority 2002, dated 2012).

One data set relates to RSV. The data set is described as follows: XTT assay, RSV-infected Hep-2 cells. Type of data set: cell-based, Respiratory Syncytial Virus (RSV). The note with it: Table 2, Examples 75 to 82 and 125 to 184, Hep-2 cells infected with RSV, 6 days at 37° C. The method, then: Examples 75 to 82 and 125 to 184 were tested according to the protocol described below.
(§1) The inner 60 wells of 96 well tissue culture plates were seeded with Hep-2 cells at 4×10^4 cells/well for compound activity and toxicity studies in 100 μl of medium and incubated at 37° C. overnight or until nearing confluency.
Cells were infected with 25 μl RSV previously titrated to give 80% cell kill. To each well 25 μM of test compound were added. The final DMSO concentration was 0.5%. Some 200 μl of sterile distilled water were added to the outer wells of the plate and incubated at 37° C. for 6 days. Some 0.25 μl/ml PMS were added to stock […] solution, final conc. 25 μM PMS. Then 25 μl warmed XTT/PMS solution were added to each well and incubated for 1 hour at 37° C.
Maximum OD450nm reading (uninfected, untreated control cells) corresponded to 100% inhibition. Minimum OD450nm readings (infected control cells) corresponded to 0% inhibition. Log 10 concentration was plotted against OD450nm and IC50 values were calculated from either reading 50% value from graph or using regression analysis.
A general note: Tetrazolium dyes change colour on reduction, which living cells bring about.

For a further data set, the system named is Hep-2 cells. The data set is described as follows: Toxicity studies (XTT), Hep-2 cells. In kind it is cell-based. Also on record: TC50 (6d): unit not given beside the values. The settings on record: for TC50 (6d): Table 2, Examples 75 to 82 and 125 to 184, 6d, in µM; for TC50 (2d): Table 2, Examples 75 to 82 and 125 to 184, 2d. The procedure:
as §1
Cells were infected with 25 μl RSV previously titrated to give 80% cell kill. To each well 25 μM of test compound were added. The final DMSO concentration was 0.5%. […] Some 0.25 μl/ml PMS were added to stock […] solution, final conc. 25 μM PMS. Then 25 μl warmed XTT/PMS solution were added to each well and incubated for 1 hour at 37° C.

Where [1] appears, read: human respiratory syncytial virus, 144 h.

In turn, `CCOc1ccc(C(C)=O)cc1C(=O)N[C@H]1N=C(c2ccccc2)c2ccccc2NC1=O` [Example 76b, (S)-5-Acetyl-2-ethoxy-N-(2-oxo-5-phenyl-2,3-dihydro-1H-benzo[e][1,4]diazepin-3-yl)-benzamide] displayed an IC50 with RSV (setting [1]) of 1.2 µM. In addition, in the data set with Hep-2 cells, the “TC50 (6d)” value was >50.
Molecule `O=C(CC(O)c1ccccc1)NC1N=C(c2ccccc2)c2ccccc2NC1=O` (stereo not drawn) [Example 145, 3-Hydroxy-N-(2-oxo-5-phenyl-2,3-dihydro-1H-benzo[e][1,4]diazepin-3-yl)-3-phenyl-propionamide] displayed an IC50 in the data set with RSV (setting [1]) of 1.9 µM. Also, the TC50 (2d) with Hep-2 cells is > 50 µM.
In the data set with RSV (setting [1]), `O=C(NC1N=C(c2ccccc2)c2ccccc2NC1=O)c1ccccc1I` (stereo not drawn) [Example 138, 2-Iodo-N-(2-oxo-5-phenyl-2,3-dihydro-1H-benzo[e][1,4]diazepin-3-yl)-benzamide] showed an IC50 of 8.3 µM. The “TC50 (6d)” value in the data set on Hep-2 cells worked out at 51.
As to `O=C(NC1N=C(c2ccccc2)c2ccccc2NC1=O)c1cc(F)cc2c1OCOC2` (stereo not drawn) [Example 77a, 6-Fluoro-4H-benzo[1,3]dioxine-8-carboxylic acid (2-oxo-5-phenyl-2,3-dihydro-1H-benzo[e][1,4]diazepin-3-yl)-benzamide], the IC50 in the data set on RSV was 4.6 µM. In addition, the “TC50 (6d)” value in the data set with Hep-2 cells is >50.
The molecule `O=C(NC1N=C(c2ccccc2)c2ccccc2NC1=O)c1cccc2cc[nH]c12` (stereo not drawn) [Example 81a, 1H-Indole-7-carboxylic acid (2-oxo-5-phenyl-2,3-dihydro-1H-benzo[e][1,4]diazepin-3-yl)-amide] registered an IC50 with RSV (setting [1]) of 8.4 µM. The “TC50 (6d)” value in the data set on Hep-2 cells stood at 63.
As to `COc1cc2ccccc2cc1C(=O)NC1N=C(c2ccccc2)c2ccccc2NC1=O` (stereo not drawn) [Example 82a, 3-Methoxy-naphthalene-2-carboxylic acid (2-oxo-5-phenyl-2,3-dihydro-1H-benzo[e][1,4]diazepin-3-yl)-amide], the IC50 with RSV (setting [1]) turned out to be 6.7 µM. For the same molecule, the “TC50 (6d)” value with Hep-2 cells was >50.
In the same order, the values of `CN(C)c1ccc(C(=O)NC2N=C(c3ccccc3)c3ccccc3NC2=O)cn1` (stereo not drawn) [Example 174, 6-Dimethylamino-N-(2-oxo-5-phenyl-2,3-dihydro-1H-benzo[e][1,4]diazepin-3-yl)-nicotinamide] are 6.9 µM and 60.
Regarding `O=C(Nc1cccc(C(F)(F)F)c1)NC1N=C(c2ccccc2)c2ccccc2NC1=O` (stereo not drawn) [Example 130, 1-(2-Oxo-5-phenyl-2,3-dihydro-1H-benzo[e][1,4]diazepin-3-yl)-3-(3-trifluoromethyl-phenyl)-urea], 9.7 µM corresponded to half-maximal inhibition in the data set on RSV (setting [1]) (IC50). Also, in the data set on Hep-2 cells, the “TC50 (6d)” value is reported as 39.5.
In the data set on RSV, “N-[5-(3-Chloro-phenyl)-2-oxo-5-phenyl-2,3-dihydro-1H-benzo[e][1,4]diazepin-3-yl]-isobutyramide [Example 155]” displayed an IC50 of 6 µM. For the same molecule, in the data set with Hep-2 cells, the TC50 (2d) is > 100 µM and the “TC50 (6d)” value is recorded as >100.
In turn, `COc1ccc(OC)c(C(=O)NC2N=C(c3ccccc3)c3ccccc3NC2=O)c1` (stereo not drawn) [Example 126, 2,5-Dimethoxy-N-(2-oxo-5-phenyl-2,3-dihydro-1H-benzo[e][1,4]diazepin-3-yl)-benzamide] came in with an IC50 with RSV (setting [1]) of 5.4 µM. The “TC50 (6d)” value with Hep-2 cells was >50.
Take `O=C(Nc1cccc(Cl)c1)NC1N=C(c2ccccc2)c2ccccc2NC1=O` (stereo not drawn) [Example 131]: in the data set on RSV, inhibition was half-maximal at 9.6 µM (IC50). Further, in the data set with Hep-2 cells, the “TC50 (6d)” value is >50.
In the data set with RSV (setting [1]), `O=C(Nc1c(F)cccc1F)NC1N=C(c2ccccc2)c2ccccc2NC1=O` (stereo not drawn) [Example 127, 1-(2,6-Difluoro-phenyl)-3-(2-oxo-5-phenyl-2,3-dihydro-1H-benzo[e][1,4]diazepin-3-yl)-urea] yielded an IC50 of 9.4 µM. Also, in the data set with Hep-2 cells, the “TC50 (6d)” value is listed as >50.
In the data set on RSV (setting [1]), `CSc1ccccc1C(=O)NC1N=C(c2ccccc2)c2ccccc2NC1=O` (stereo not drawn) [Example 142, 2-Methylsulfanyl-N-(2-oxo-5-phenyl-2,3-dihydro-1H-benzo[e][1,4]diazepin-3-yl)-benzamide] registered a half-inhibitory concentration (IC50) of 9.4 µM. The “TC50 (6d)” value in the data set with Hep-2 cells was >50.
In the same order, the values of `O=C(NC1N=C(c2ccccc2)c2ccccc2NC1=O)c1ccccn1` (stereo not drawn) [Example 172, Pyridine-2-carboxylic-acid (2-oxo-5-phenyl-2,3-dihydro-1H-benzo[e][1,4]diazepin-3-yl)-amide] are 6.4 µM and 137.8.
Molecule `COc1cc(SC)ccc1C(=O)NC1N=C(c2ccccc2)c2ccccc2NC1=O` (stereo not drawn) [Example 132, 2-Methoxy-4-methylsulfanyl-N-(2-oxo-5-phenyl-2,3-dihydro-1H-1-benzo[e][1,4]diazepin-3-yl)-benzamide] had an IC50 in the data set on RSV of 6.3 µM. For the same molecule, the “TC50 (6d)” value with Hep-2 cells was >50.
In the data set on RSV (setting [1]), `O=C(Nc1ccsc1)NC1N=C(c2ccccc2)c2ccccc2NC1=O` (stereo not drawn) [Example 171, 1-(2-Oxo-5-phenyl-2,3-dihydro-1H-benzo[e][1,4]diazepin-3-yl)-3-thiophene-3-yl-urea] showed an IC50 of 4.8 µM. Further, the “TC50 (6d)” value with Hep-2 cells is >50.
Molecule `CS(=O)(=O)c1ccc(C(=O)NC2N=C(c3ccccc3)c3ccccc3NC2=O)cc1` (stereo not drawn) [Example 133, 4-Methanesulfonyl-N-(2-oxo-5-phenyl-2,3-dihydro-1H-benzo[e][1,4]diazepin-3-yl)-benzamide] registered an IC50 with RSV (setting [1]) of 6.2 µM. Besides, the “TC50 (6d)” value in the data set with Hep-2 cells is 77.2.
The molecule `COc1ccc(C(C)(C)C)cc1C(=O)NC1N=C(c2ccccc2)c2ccccc2NC1=O` (stereo not drawn) [Example 125, 5-tert-Butyl-2-methoxy-N-(2-oxo-5-phenyl-2,3-dihydro-1H-benzo[e][1,4]diazepin-3-yl)-benzamide] registered an IC50 in the data set on RSV (setting [1]) of 6.1 µM. Further, the “TC50 (6d)” value in the data set with Hep-2 cells is listed as >50.
`O=C(NC1N=C(c2ccccc2)c2ccccc2NC1=O)c1cn[nH]c1` (stereo not drawn) [Example 173, 1H-Pyrazole-4-carboxylic acid (2-oxo-5-phenyl-2,3-dihydro-1H-benzo[e][1,4]diazepin-3-yl)-amide] had an IC50 in the data set with RSV (setting [1]) of 8.3 µM. Further, the “TC50 (6d)” value in the data set with Hep-2 cells was 95.
In the data set on RSV (setting [1]), `O=C(N[C@H]1N=C(c2ccccc2)c2ccccc2NC1=O)c1ccccc1O` [Example 80b, (S)-2-Hydroxy-N-(2-oxo-5-phenyl-2,3-dihydro-1H-benzo[e][1,4]diazepin-3-yl)-benzamide] gave an IC50 of 2 µM. The “TC50 (6d)” value with Hep-2 cells is reported as >50.
As to `O=C(NC1N=C(c2ccccc2)c2ccccc2NC1=O)c1cnccn1` (stereo not drawn) [Example 162], in the data set with RSV, inhibition was half-maximal at 2 µM (IC50). Also, in the data set on Hep-2 cells, the TC50 (2d) was > 100 µM and the “TC50 (6d)” value is given as >100.
“Thiophene-2-carboxylic acid [5-(3-methoxy-phenyl)-2-oxo-5-phenyl-2,3-dihydro-1H-benzo[e][1,4]diazepin-3-yl]-amide [Example 164]” came in with an IC50 in the data set with RSV of 4 µM. Also, in the data set with Hep-2 cells, the TC50 (2d) amounted to 100 µM and the “TC50 (6d)” value turned out to be 100.
`O=C1Nc2ccccc2C(c2ccccc2)=NC1NC(=O)n1c(=O)[nH]c2ccccc21` (stereo not drawn) [Example 177, 2-Oxo-2,3-dihydro-benzoimidazole-1-carboxylic acid (2-oxo-5-phenyl-2,3-dihydro-1H-benzo[e][1,4]diazepin-3-yl)-amide]: half-maximal inhibition in the data set with RSV (setting [1]) (IC50) required 4.3 µM. The “TC50 (6d)” value with Hep-2 cells is recorded as >50.
In the data set on RSV (setting [1]), `CCOc1ccc2ccccc2c1C(=O)NC1N=C(c2ccccc2)c2ccccc2NC1=O` (stereo not drawn) [Example 175, 2-Ethoxy-naphthalene-1-carboxylic acid (2-oxo-5-phenyl-2,3-dihydro-1H-benzo[e][1,4]diazepin-3-yl)-amide] yielded an IC50 of 8.2 µM. Also, in the data set with Hep-2 cells, the “TC50 (6d)” value is listed as >50.
For `CC(C)COC(=O)NC1N=C(c2ccccc2)c2ccccc2NC1=O` (stereo not drawn) [Example 183, (2-Oxo-5-phenyl-2,3-dihydro-1H-benzo[e][1,4]diazepin-3-yl)-carbamic acid isobutyl ester] the same measures were 9.88 µM and >50.
`COc1cc(C(F)(F)F)ccc1C(=O)N[C@H]1N=C(c2ccccc2)c2ccccc2NC1=O` [Example 78, (S)-2-Methoxy-N-(2-oxo-5-phenyl-2,3-dihydro-1H-benzo[e][1,4]diazepin-3-yl)-4-trifluoromethyl-benzamide] returned an IC50 in the data set with RSV (setting [1]) of 2.7 µM. Besides, the “TC50 (6d)” value in the data set with Hep-2 cells is given as 32.5.
`CCCCNC(=O)NC1N=C(c2ccccc2)c2ccccc2NC1=O` (stereo not drawn) [Example 151, 1-Butyl-3-(2-oxo-5-phenyl-2,3-dihydro-1H-benzo[e][1,4]diazepin-3-yl)-urea] came in with a half-inhibitory concentration (IC50) with RSV (setting [1]) of 1.5 µM. In the data set on Hep-2 cells, the TC50 (2d) is > 100 µM and the “TC50 (6d)” value was >100.
In turn, `O=C(NC1N=C(c2ccccc2)c2ccccc2NC1=O)c1ccccc1F` (stereo not drawn) [Example 135, 2-Fluoro-N-(2-oxo-5-phenyl-2,3-dihydro-1H-benzo[e][1,4]diazepin-3-yl)-benzamide] had an IC50 with RSV (setting [1]) of 9.5 µM. In addition, the “TC50 (6d)” value in the data set on Hep-2 cells was >50.

Broadly, the IC50 is the concentration that inhibits the measured activity by half.
